Measurements published in ChEMBL document CHEMBL1154001, “Discovery of potent and selective DP1 receptor antagonists in the azaindole series” (Bioorg Med Chem Lett, 2009).

What was measured:
[1] = Cmax in Beagle dog at 10 mg/kg; format: ADME, organism-based, Canis lupus familiaris; parameters: dose 10 mg/kg; conditions: in vivo
[2] = Plasma clearance in cynomolgus monkey at 2 mg/kg; format: ADME, organism-based, Macaca fascicularis; parameters: dose 2 mg/kg
[3] = Volume of distribution at steady state in Beagle dog at 2 mg/kg; format: ADME, organism-based, Canis lupus familiaris; parameters: dose 2 mg/kg; conditions: in vivo, read-out: Vdss
[4] = Volume of distribution at steady state in rat at 10 mg/kg; format: ADME, organism-based; parameters: dose 10 mg/kg; conditions: in vivo, read-out: Vdss
[5] = Cmax in squirrel monkey at 10 mg/kg; format: ADME, organism-based; parameters: dose 10 mg/kg; conditions: saimiri, in vivo
[6] = Terminal half life in squirrel monkey at 10 mg/kg; format: ADME, organism-based; parameters: dose 10 mg/kg; conditions: saimiri, in vivo, read-out: beta t1/2 (converted)
[7] = Bioavailability in Beagle dog; format: ADME, organism-based, Canis lupus familiaris; conditions: in vivo
[8] = Plasma clearance in Beagle dog at 2 mg/kg; format: ADME, organism-based, Canis lupus familiaris; parameters: dose 2 mg/kg
[9] = Cmax in cynomolgus monkey at 4 mg/kg; format: ADME, organism-based, Macaca fascicularis; parameters: dose 4 mg/kg; conditions: in vivo
[10] = Bioavailability in cynomolgus monkey; format: ADME, organism-based, Macaca fascicularis; conditions: in vivo
[11] = Terminal half life in Beagle dog at 10 mg/kg; format: ADME, organism-based, Canis lupus familiaris; parameters: dose 10 mg/kg; conditions: in vivo, read-out: beta t1/2 (converted)
[12] = Terminal half life in rat at 10 mg/kg; format: ADME, organism-based; parameters: dose 10 mg/kg; conditions: in vivo, read-out: beta t1/2 (converted)
[13] = Bioavailability in rat; format: ADME, organism-based; conditions: in vivo
[14] = Cmax in rat at 30 mg/kg; format: ADME, organism-based; parameters: dose 30 mg/kg; conditions: in vivo
[15] = Bioavailability in squirrel monkey; format: ADME, organism-based; conditions: saimiri, in vivo
[16] = Plasma clearance in squirrel monkey at 5 mg/kg; format: ADME, organism-based; parameters: dose 5 mg/kg; conditions: saimiri
[17] = Volume of distribution at steady state in squirrel monkey at 5 mg/kg; format: ADME, organism-based; parameters: dose 5 mg/kg; conditions: saimiri, in vivo, read-out: Vdss
[18] = Plasma clearance in rat at 10 mg/kg; format: ADME, organism-based; parameters: dose 10 mg/kg
[19] = Terminal half life in cynomolgus monkey at 10 mg/kg; format: ADME, organism-based, Macaca fascicularis; parameters: dose 10 mg/kg; conditions: in vivo, read-out: beta t1/2 (converted)
[20] = Volume of distribution at steady state in cynomolgus monkey at 2 mg/kg; format: ADME, organism-based, Macaca fascicularis; parameters: dose 2 mg/kg; conditions: in vivo, read-out: Vdss

Cmax [1]: 9 µM
clearance [2]: 21 mL/min/kg
Vd [3]: 1.2 L/kg
Vd [4]: 0.47 L/kg
Cmax [5]: 8.5 µM
half-life [6]: 1.4 h
bioavailability [7]: 23%
clearance [8]: 4 mL/min/kg
Cmax [9]: 0.06 µM
bioavailability [10]: 4%
half-life [11]: 8.6 h
half-life [12]: 8.3 h
bioavailability [13]: 53%
Cmax [14]: 28 µM
bioavailability [15]: 43%
clearance [16]: 7.3 mL/min/kg
Vd [17]: 0.78 L/kg
clearance [18]: 1.6 mL/min/kg
half-life [19]: 13.8 h
Vd [20]: 1.2 L/kg
SMILES: CC(C)c1nccc2c1c(Sc1ccc(Cl)c(Cl)c1)c1n2CC[C@@H]1CC(=O)O
